Reference: patent publication US20150336889A1, “INDOLE DERIVATIVES, PHARMACEUTICAL COMPOSITIONS CONTAINING SUCH INDOLES AND THEIR USE AS DNA METHYLATION MODULATORS” (IKERCHEM, S.L., priority 2012, published 2015)

Columns and labels:
SK-HEP-1 = experiment: Cancer cell growth inhibition, SK-HEP-1; format: cell-based; settings: Homo sapiens, SK-HEP1; Liver, SK-HEP-1, cell viability, 72 h
Protocol: (§1) Cell culture-based assays were used to evaluate the ability of compounds of the invention to inhibit cancer cell growth inhibition.
(§2) Cells were obtained from the American Type Culture Collection (ATCC) and European Collection of Cell Cultures (ECACC).
(§3) Cells were thawed in their appropriate media plus supplements (see table below). Cells were passaged at confluence by washing once in HBSS cation-free followed by a 3 minutes incubation with trypsin ([0.5 μg/ml]/EDTA [0.2 μg/ml]) (Gibco-BRL, 15400054) solution in HBSS at 37° C. (except non-adherent cell lines), and transferred to their appropriate media plus supplements. Prior to seeding at defined cell concentration, cells were recovered in medium, centrifuged and taken up in medium, and counted.
(§4) Cells were plated at 3000/5000/10000 cells/well in 100 μl media in tissue culture 96 well plates (Cultek). After 24 h, media was supplemented by 100 μl/well of diluted IPDNs at 100 μM.
(§5) The Hexosaminidase assay was used for the adherent cell lines, whereas the AlamarBlue® assay was used for the non-adherent cell lines.
(§6) Dose-response curves were generated by serial dilutions (1:1) of the compounds. […] Reagent blanks, containing media plus colorimetric reagent without cells were run on each plate. Blank values were subtracted from test values and were routinely 5-10% of uninhibited control values. Plates were incubated 72 h, and living cell number was determined by AlamarBlue® and Hexosaminidase test. The advantages of using those assays are that both can be done in the same microwell plate. AlamarBlue® assay: plates were incubated 72 h and living cell number was determined by AlamarBlue (Biosource DAL1100). After 4 h incubation at 37° C., relative fluorescent intensity, which correlates with the number of living cells, was read in a Cytofluor plate reader (Millipore) at 535/590 nm (Excitation/emission). The hexosaminidase activity was measured according to the following protocol: the media was removed and cells were washed once with PBS. […]

Colo205 = experiment: Cancer cell growth inhibition, Colo205; format: cell-based; settings: Homo sapiens, COLO 205; Colorectal, Colo205, cell viability, 72 h
Protocol: as §1, §2, §3, §4, §5, §6

OVCAR-3 = experiment: Cancer cell growth inhibition, OVCAR-3; format: cell-based; settings: Homo sapiens; Ovarian, OVCAR-3, cell viability, 72 h
Protocol: as §1, §2
as §3, with “counted. […]” for “counted.”
(§7) Dose-response curves were generated by serial dilutions (1:1) of the compounds. […] Plates were incubated 72 h, and living cell number was determined by AlamarBlue® and Hexosaminidase test. […] AlamarBlue® assay: plates were incubated 72 h and living cell number was determined by AlamarBlue (Biosource DAL1100). After 4 h incubation at 37° C., relative fluorescent intensity, which correlates with the number of living cells, was read in a Cytofluor plate reader (Millipore) at 535/590 nm (Excitation/emission). The hexosaminidase activity was measured according to the following protocol: the media was removed and cells were washed once with PBS. […]

U-87MG = experiment: Cancer cell growth inhibition, U-87MG; format: cell-based; settings: Homo sapiens, Brain, cell viability, 72 h
Protocol: as §1, §2, §3, §4, §5
(§8) Dose-response curves were generated by serial dilutions (1:1) of the compounds. […] Reagent blanks, containing media plus colorimetric reagent without cells were run on each plate. Blank values were subtracted from test values and were routinely 5-10% of uninhibited control values. Plates were incubated 72 h, and living cell number was determined by AlamarBlue® and Hexosaminidase test. The advantages of using those assays are that both can be done in the same microwell plate. AlamarBlue® assay: plates were incubated 72 h and living cell number was determined by AlamarBlue (Biosource DAL1100). After 4 h incubation at 37° C., relative fluorescent intensity, which correlates with the number of living cells, was read in a Cytofluor plate reader (Millipore) at 535/590 nm (Excitation/emission). The hexosaminidase activity was measured according to the following protocol: the media was removed and cells were washed once with PBS.
(§9) Data analysis was done by calculating the percentage of cell viability normalized in front of negative control values, which were considered as a 100%. The curve was adjusted using a sigmoidal dose-response (variable slope) equation and EC50 values were obtained from the equation
(§10) where, X is the logarithm of concentration. Y is the response. Bottom is the Y value at the bottom plateau Top is the Y value at the top plateau LogEC50 is the X value when the response is halfway between Bottom and Top. With different kinds of variables, this variable is sometimes called ED50 (effective dose, 50%), or IC50 (inhibitory concentration, 50%, used when the curve goes downhill).

PC3 = experiment: Cancer cell growth inhibition, PC3; format: cell-based; settings: Homo sapiens, PC-3; Prostate, PC3, cell viability, 72 h
Protocol: as §1, §2, §3, §4, §5, §8, §9, §10

LoVo = experiment: Cancer cell growth inhibition, LoVo; format: cell-based; settings: Homo sapiens, Colorectal, cell viability, 72 h
Protocol: as §1, §2, §3, §4, §5, §6

MiaPaCa-2 = experiment: Cancer cell growth inhibition, MiaPaCa-2; format: cell-based; settings: Homo sapiens, MIA PaCa-2; Pancreatic, MiaPaCa-2, cell viability, 72 h
Protocol: as §1, §2, §3, §4, §5, §8, §9, §10

RAMOS = experiment: Cancer cell growth inhibition, RAMOS; format: cell-based; settings: Homo sapiens, Hematologic, cell viability, 72 h
Protocol: as §1, §2, §3, §4, §5, §8, §9, §10

A-431 = experiment: Cancer cell growth inhibition, A-431; format: cell-based; settings: Homo sapiens; Epidermoid, A-431, cell viability, 72 h
Protocol: as §1, §2, §3, §4, §5, §8, §9, §10

LnCaP = experiment: Cancer cell growth inhibition, LnCaP; format: cell-based; settings: Homo sapiens, Prostate, cell viability, 72 h
Protocol: as §1, §2, §3, §4, §5, §8, §9, §10

143B = experiment: Cancer cell growth inhibition, 143B; format: cell-based; settings: Homo sapiens, Osteosarcoma, cell viability, 72 h
Protocol: as §1, §2, §3, §4, §5, §8, §9, §10

MCF-7 = experiment: Cancer cell growth inhibition, MCF-7; format: cell-based; settings: Homo sapiens, MCF7; Breast, MCF-7, cell viability, 72 h
Protocol: as §1, §2, §3, §4, §5, §8, §9, §10

Human DNMT1 = molecular target: T1, Human DNMT1 (Homo sapiens, UniProt P26358); experiment: DNMT1 enzymatic activity inhibition, radioisotope-based 3H-SAM filter binding assay; format: biochemical; settings: 1 μM SAM, 25 nM DNMT1, 0.005 mg/ml Poly(dI-dC), 30° C. 1 hour, 10-dose
T1 construct: a-a 2-1632, with N-terminal GST tag; GST (N)
T1 sequence (P26358 2-1632 isoform P26358-2): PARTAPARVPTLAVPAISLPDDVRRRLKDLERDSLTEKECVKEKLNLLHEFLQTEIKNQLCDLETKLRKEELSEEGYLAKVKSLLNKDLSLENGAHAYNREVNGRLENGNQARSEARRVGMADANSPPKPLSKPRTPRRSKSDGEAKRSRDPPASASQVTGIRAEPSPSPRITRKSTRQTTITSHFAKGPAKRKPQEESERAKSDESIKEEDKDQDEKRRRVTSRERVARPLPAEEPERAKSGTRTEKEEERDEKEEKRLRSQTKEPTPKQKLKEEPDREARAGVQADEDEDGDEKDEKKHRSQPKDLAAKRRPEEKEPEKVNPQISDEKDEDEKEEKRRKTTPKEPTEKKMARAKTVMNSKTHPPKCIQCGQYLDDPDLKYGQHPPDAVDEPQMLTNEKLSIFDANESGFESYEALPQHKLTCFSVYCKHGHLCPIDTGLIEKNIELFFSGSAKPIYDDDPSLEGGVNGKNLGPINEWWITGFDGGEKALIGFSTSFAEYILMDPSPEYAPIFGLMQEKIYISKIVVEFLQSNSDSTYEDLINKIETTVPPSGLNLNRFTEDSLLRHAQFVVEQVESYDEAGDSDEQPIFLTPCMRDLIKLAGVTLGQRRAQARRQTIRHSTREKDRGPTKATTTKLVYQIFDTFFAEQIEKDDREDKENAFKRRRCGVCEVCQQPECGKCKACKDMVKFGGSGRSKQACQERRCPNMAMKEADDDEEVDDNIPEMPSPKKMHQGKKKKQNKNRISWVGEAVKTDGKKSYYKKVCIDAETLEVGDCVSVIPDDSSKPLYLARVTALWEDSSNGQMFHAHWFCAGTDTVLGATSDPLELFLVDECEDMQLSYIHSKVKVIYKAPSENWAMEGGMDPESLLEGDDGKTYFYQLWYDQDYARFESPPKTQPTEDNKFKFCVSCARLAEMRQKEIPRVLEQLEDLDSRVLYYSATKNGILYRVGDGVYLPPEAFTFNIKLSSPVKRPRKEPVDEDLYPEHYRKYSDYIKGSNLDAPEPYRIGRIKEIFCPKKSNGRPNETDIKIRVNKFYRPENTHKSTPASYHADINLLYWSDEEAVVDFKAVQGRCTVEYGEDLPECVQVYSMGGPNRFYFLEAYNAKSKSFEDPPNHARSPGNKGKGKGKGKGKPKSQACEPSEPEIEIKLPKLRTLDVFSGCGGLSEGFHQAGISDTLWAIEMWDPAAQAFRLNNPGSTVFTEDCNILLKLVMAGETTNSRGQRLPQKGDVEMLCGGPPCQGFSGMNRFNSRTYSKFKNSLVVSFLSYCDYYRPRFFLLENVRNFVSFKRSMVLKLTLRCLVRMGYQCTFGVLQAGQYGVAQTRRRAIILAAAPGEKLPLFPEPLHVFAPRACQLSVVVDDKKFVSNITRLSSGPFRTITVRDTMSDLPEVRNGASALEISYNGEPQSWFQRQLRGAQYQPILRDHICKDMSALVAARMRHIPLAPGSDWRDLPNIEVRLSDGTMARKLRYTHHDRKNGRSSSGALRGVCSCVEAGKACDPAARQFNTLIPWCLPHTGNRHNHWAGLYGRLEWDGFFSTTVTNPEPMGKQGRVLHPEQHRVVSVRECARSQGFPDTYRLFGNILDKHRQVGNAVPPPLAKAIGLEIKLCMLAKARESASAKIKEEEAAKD
Protocol: The inhibition of the enzymatic activity of DNMT1 was tested using low volume radioisotope-based assay which uses tritium-labeled AdoMet (^3H-SAM) as a methyl donor. Inhibitors diluted in DMSO were added by using acoustic technology (Echo550, Labcyte Inc. Sunnyvale, Calif.) into enzyme/substrate mixture in nano-liter range. The reaction was initiated by the addition of ^3H-SAM, and incubated at 30° C. for 1 hour. Total final methylations on the substrate poly(dI-dC) were detected by a filter binding approach. Data analysis was performed using GraphPad Prism software (La Jolla, Calif.) for IC50 curve fits.

MDA-MB-435 = experiment: Cancer cell growth inhibition, MDA-MB-435; format: cell-based; settings: Homo sapiens; Melanoma, MDA-MB-435, cell viability, 72 h
Protocol: as §1, §2, §3, §4, §5, §8, §9, §10

MDA-MB-468 = experiment: Cancer cell growth inhibition, MDA-MB-468; format: cell-based; settings: Homo sapiens; Breast, MDA-MB-468, cell viability, 72 h
Protocol: as §1, §2, §3, §4, §5, §6

A-549 = experiment: Cancer cell growth inhibition, A-549; format: cell-based; settings: Homo sapiens, A549; Lung, A-549, cell viability, 72 h
Protocol: as §1, §2, §3, §4, §5, §8, §9, §10

SK-BR-3 = experiment: Cancer cell growth inhibition, SK-BR-3; format: cell-based; settings: Homo sapiens; Breast, SK-BR-3, cell viability, 72 h
Protocol: as §1, §2, §3, §4, §5, §6

Jurkat = experiment: Cancer cell growth inhibition, Jurkat; format: cell-based; settings: Homo sapiens, Hematologic, cell viability, 72 h
Protocol: as §1, §2, §3, §4, §5, §8, §9, §10

RPMI-8226 = experiment: Cancer cell growth inhibition, RPMI-8226; format: cell-based; settings: Homo sapiens; Multiple Myelome, RPMI-8226, cell viability, 72 h
Protocol: as §1, §2, §3, §4, §5, §8, §9, §10

CCFR-CEM = experiment: Cancer cell growth inhibition, CCFR-CEM; format: cell-based; settings: Hematologic, cell viability, 72 h
Protocol: as §1, §2, §3, §4, §5, §8, §9, §10

Daoy = experiment: Cancer cell growth inhibition, Daoy; format: cell-based; settings: Homo sapiens, Brain, cell viability, 72 h
Protocol: as §1, §2, §3, §4, §5, §8, §9, §10

HepG2 = experiment: Cancer cell growth inhibition, HepG2; format: cell-based; settings: Homo sapiens; Liver, HepG2, cell viability, 72 h
Protocol: as §1, §2
as §3, with “counted. […]” for “counted.”
as §7

EC50 (SK-HEP-1) | EC50 (Colo205) | EC50 (OVCAR-3) | EC50 (U-87MG) | EC50 (PC3) | EC50 (LoVo) | EC50 (MiaPaCa-2) | EC50 (RAMOS) | EC50 (A-431) | EC50 (LnCaP) | EC50 (143B) | EC50 (MCF-7) | IC50 (Human DNMT1) | EC50 (MDA-MB-435) | EC50 (MDA-MB-468) | EC50 (A-549) | EC50 (SK-BR-3) | EC50 (Jurkat) | EC50 (RPMI-8226) | EC50 (CCFR-CEM) | SMILES | other results
31 µM | 16 µM | 7.2 µM | 13 µM | 51 µM | 12 µM | 5.5 µM | 6.6 µM | 11 µM | 4.8 µM | 19 µM | 6.2 µM | 27.9 µM | 4.3 µM | 6.1 µM | 11 µM | 3.8 µM | 1.9 µM | 6.4 µM | 6.3 µM | COc1cc(OC)c2c(-c3ccc(O)cc3)cn(CC(=O)c3ccc(O)cc3)c2c1 [Example 6, 1-(4-hydroxyphenyl)-2-[3-(4-hydroxyphenyl)-4,6-dimethoxy-1H-indol-1-yl]ethanone] | EC50 (Daoy): 4.2 µM; EC50 (HepG2): 19 µM
35 µM | 31 µM | 47 µM | 95 µM | 83 µM | 50 µM | 61 µM | 35 µM | 66 µM | 43 µM | 31 µM | 41 µM | 22.5 µM | 57 µM | 74 µM | 39 µM | 59 µM | 30 µM | 65 µM | 57 µM | O=C(Cn1cc(-c2ccc(O)cc2)c2c(F)cc(F)cc21)c1ccc(O)cc1 [Example 16, 2-[4,6-difluoro-3-(4-hydroxyphenyl)-1H-indol-1-yl]-1-(4-hydroxyphenyl) ethanone] | EC50 (Daoy): 50 µM; EC50 (HepG2): 44 µM
